Read-outs that look alike come from different tables or passages of the source.

One data set has as its target T1, mGluR5 receptors (Homo sapiens, UniProt P41594).
T1 construct: expressed in transfected cells; host or cells: transiently or stably transfected cell lines (e.g., HEK293, COS, CHO, NIH3T3)
The data set can be described thus: In vitro binding to glutamate receptors ([^3H]MPEP displacement, membranes of transfected cell lines). Particulars: mGluR5, radioligand [^3H]MPEP. How it is done:
The assay buffer is Standard Binding Buffer (50 mM Tris-HCl, 10 mM MgCl2, 0.1 mM EDTA, pH 7.4) and the membrane fraction source is transiently or stably transfected cell lines (e.g., HEK293, COS, CHO, NIH3T3)
Aliquots (50 μL) of radioligand are dispensed into the wells of a 96-well plate containing 100 μl of Standard Binding Buffer. Then, duplicate 50-μL aliquots of the test and reference compound dilutions are added.
The 250-4, reactions are incubated at room temperature and shielded from light (to prevent photolysis of light-sensitive ligands) for 1 hour, then harvested by rapid filtration onto Whatman GF/B glass fiber filters pre-soaked with 0.3% polyethyleneimine using a 96-well Brandel harvester. Four rapid 500-μL washes are performed with chilled Standard Binding Buffer to reduce non-specific binding. Filters are placed in 6-mL scintillation tubes and allowed to dry overnight. The next day, 4 mL of EcoScint scintillation cocktail (National Diagnostics) are added to each tube. The tubes are capped, labeled, and counted by liquid scintillation counting. […] The filter mats are dried, then scintillant is melted onto the filters and the radioactivity retained on the filters is counted in a Microbeta scintillation counter.
Raw data (dpm) representing total radioligand binding (i.e., specific+non-specific binding) are plotted as a function of the logarithm of the molar concentration of the competitor (i.e., test or reference compound).
Ki=IC50/(1+[ligand]/KD) (Eqn. 2)
where [ligand] equals the assay radioligand concentration and KD equals the affinity constant of the radioligand for the target receptor.

For data set [1] the following is noted: monkey; cited from earlier work.
The conditions of data set [2]: rat; cited from earlier work.
For data set [3] the following is noted: human subjects; cited from earlier work.

T1 sequence (P41594 21-1212): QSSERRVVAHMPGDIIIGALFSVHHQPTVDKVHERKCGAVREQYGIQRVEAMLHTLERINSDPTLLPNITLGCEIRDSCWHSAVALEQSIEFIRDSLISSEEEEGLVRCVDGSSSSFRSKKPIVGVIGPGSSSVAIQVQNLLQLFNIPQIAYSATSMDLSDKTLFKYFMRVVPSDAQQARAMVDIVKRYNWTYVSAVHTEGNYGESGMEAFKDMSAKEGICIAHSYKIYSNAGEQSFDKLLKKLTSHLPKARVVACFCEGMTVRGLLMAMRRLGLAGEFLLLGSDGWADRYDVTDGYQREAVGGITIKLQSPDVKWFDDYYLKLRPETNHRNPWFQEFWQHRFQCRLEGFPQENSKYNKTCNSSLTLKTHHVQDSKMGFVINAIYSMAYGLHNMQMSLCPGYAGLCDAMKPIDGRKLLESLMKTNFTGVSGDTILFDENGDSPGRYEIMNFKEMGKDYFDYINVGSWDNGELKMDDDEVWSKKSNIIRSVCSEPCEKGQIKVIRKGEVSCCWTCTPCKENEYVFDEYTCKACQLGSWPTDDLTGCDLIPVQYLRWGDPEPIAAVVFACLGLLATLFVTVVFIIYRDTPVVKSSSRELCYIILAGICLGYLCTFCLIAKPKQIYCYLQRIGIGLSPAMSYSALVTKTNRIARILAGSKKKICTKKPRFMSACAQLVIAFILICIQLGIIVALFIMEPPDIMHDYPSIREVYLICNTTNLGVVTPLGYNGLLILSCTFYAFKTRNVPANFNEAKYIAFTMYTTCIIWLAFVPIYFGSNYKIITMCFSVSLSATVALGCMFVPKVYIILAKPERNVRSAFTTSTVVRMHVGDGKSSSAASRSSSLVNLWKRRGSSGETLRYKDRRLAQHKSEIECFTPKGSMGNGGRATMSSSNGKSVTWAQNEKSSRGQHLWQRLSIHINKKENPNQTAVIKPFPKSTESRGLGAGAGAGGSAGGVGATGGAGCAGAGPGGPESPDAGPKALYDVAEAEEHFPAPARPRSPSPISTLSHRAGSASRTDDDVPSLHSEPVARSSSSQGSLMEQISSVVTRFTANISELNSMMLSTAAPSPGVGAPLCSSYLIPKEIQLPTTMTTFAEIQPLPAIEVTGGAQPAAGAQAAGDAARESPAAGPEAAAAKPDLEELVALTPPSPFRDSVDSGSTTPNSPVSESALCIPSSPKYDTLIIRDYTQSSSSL

For the molecule `N#CCc1cccc(C#Cc2csc(F)n2)c1` [Compound 16], at mGluR5 receptors, the Ki is < 50 nM.

Turning to `COc1cccc(C#Cc2csc(F)n2)c1` [Compound 15], the inhibition constant Ki on mGluR5 receptors is < 50 nM. For the molecule `N#Cc1cccc(C#Cc2csc(F)n2)c1` [Compound 13, (5-((2-fluorothiazol-4-yl)ethynyl)benzonitrile)], at mGluR5 receptors, the Ki was < 50 nM. Regarding `N#Cc1cc(F)cc(C#Cc2csc(C[18F])n2)c1` [[^18F]SP203, 3-fluoro-5-[[2-([^18F]fluoromethyl)thiazol-4-yl]ethynyl]benzonitrile], the defluorination result in data set [1] was “rapidly defluorinated”; in data set [2], “rapidly defluorinated”; in data set [3], “slower or negligible”. `Fc1nc(C#Cc2ccccc2)cs1` [Compound 12, 2-fluoro-4-(phenylethynyl)thiazole]: the Ki at mGluR5 receptors was < 150 nM. As for `N#Cc1cc(F)cc(C#Cc2csc(F)n2)c1` [Compound 14, 3-fluoro-5-((2-fluorothiazol-4-yl)ethynyl)benzonitrile], the inhibition constant Ki at mGluR5 receptors is < 50 nM.
